From paper PMC7866079, “Investigation of Receptor Heteromers Using NanoBRET Ligand Binding” (International Journal of Molecular Sciences, 2021)

Legend:
[1] = target: T1, AT1-β2AR heteromer (Homo sapiens, UniProt P07550); experiment: NanoBRET saturation ligand binding, Receptor-HIT configuration, cells expressing Nluc-AT1 + β2AR; conditions: mean ± SEM, n = 8, BODIPY-propranolol saturation, non-specific binding with 10 μM propranolol, read-out: Kd (affinity of binding to AT1-β2AR heteromers)
T1 construct: expressed in transfected cells; host or cells: HEK293FT, transient cotransfection
T1 sequence (P07550 whole entry, one chain of several): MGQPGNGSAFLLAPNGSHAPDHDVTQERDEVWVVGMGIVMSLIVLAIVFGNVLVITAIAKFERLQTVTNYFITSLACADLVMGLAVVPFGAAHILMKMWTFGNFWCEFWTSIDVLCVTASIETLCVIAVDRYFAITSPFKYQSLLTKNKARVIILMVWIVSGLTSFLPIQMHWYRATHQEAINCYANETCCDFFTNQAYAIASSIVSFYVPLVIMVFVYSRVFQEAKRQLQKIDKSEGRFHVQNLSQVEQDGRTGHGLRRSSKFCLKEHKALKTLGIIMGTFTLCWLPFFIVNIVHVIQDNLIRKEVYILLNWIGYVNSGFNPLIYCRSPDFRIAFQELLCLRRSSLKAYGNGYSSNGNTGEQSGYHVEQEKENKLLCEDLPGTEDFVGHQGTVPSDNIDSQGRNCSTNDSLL
Protocol: (§1) All individual experiments were conducted with duplicate wells.
(§2) All data were presented and analyzed using GraphPad Prism 8.0. Saturation binding data were fitted with one-site nonlinear regression for specific binding. Competition binding data were fitted using logarithmic nonlinear regression (three parameter). Statistical analysis was performed as described in the relevant figure/table legends or in the text, with p < 0.05 considered significant.

[2] = target: T2, β2AR (Homo sapiens, UniProt P07550); experiment: NanoBRET saturation ligand binding, cells expressing Nluc-β2AR
T2 construct: host or cells: HEK293FT, transient transfection
T2 sequence (P07550 whole entry): as the sequence (P07550 whole entry, one chain of several) above
Protocol: as §1, §2

[3] = target: T3, AT1 receptor (Homo sapiens, UniProt P30556); experiment: NanoBRET competition binding of TAMRA-AngII, cells expressing Nluc-AT1; conditions: various concentrations of TAMRA-AngII, increasing concentrations of competitor
T3 construct: host or cells: HEK293FT, transient transfection
T3 sequence (P30556 1-359): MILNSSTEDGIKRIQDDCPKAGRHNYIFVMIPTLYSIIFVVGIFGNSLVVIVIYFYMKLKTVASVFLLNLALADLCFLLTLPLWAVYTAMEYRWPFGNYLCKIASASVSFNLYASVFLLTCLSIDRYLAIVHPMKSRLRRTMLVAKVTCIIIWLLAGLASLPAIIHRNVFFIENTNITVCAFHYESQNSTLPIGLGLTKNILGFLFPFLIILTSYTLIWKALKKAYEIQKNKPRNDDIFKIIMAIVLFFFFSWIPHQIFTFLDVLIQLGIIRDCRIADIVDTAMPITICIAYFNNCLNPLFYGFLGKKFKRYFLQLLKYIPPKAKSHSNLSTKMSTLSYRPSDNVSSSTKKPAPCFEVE
Protocol: Figure 8 Competition binding of TAMRA-AngII to the AT1 receptor and the AT1-AT2 heteromer.
The relative BRET ratio was calculated by normalizing the data, as described in the figure legends. All individual experiments were conducted with duplicate wells.

displacement of TAMRA-AngII bound to Nluc-AT1 [3] | SMILES | Kd [1] [nM] | specific binding to Nluc-β2AR ([2]; cells expressing Nluc-β2AR only, presence or absence of 10 μM propranolol) | Kd ([2]; mean ± SEM, n = 4, cells expressing Nluc-β2AR, BODIPY-propranolol saturation, non-specific binding with 10 μM propranolol, read-out: Kd (affinity of binding to β2ARs)) [nM]
– | CC[C@H](C)[C@H](NC(=O)[C@H](Cc1ccc(O)cc1)NC(=O)[C@@H](NC(=O)[C@H](CCCNC(=N)N)NC(=O)[C@H](CC(=O)O)NC(=O)CCCCCNC(=O)COc1ccc(/C=C/c2ccc3n2[B-](F)(F)[N+]2=C(c4cccs4)C=CC2=C3)cc1)C(C)C)C(=O)N[C@@H](Cc1c[nH]cn1)C(=O)N1CCC[C@H]1C(=O)N[C@@H](Cc1ccccc1)C(=O)O [BODIPY-AngII] | 8.8 ± 4 | no specific binding | 3.9 ± 0.5
unable to see any displacement | Cc1cc(Cn2cnc3c2C[C@@H](C(=O)O)N(C(=O)C(c2ccccc2)c2ccccc2)C3)ccc1N(C)C [PD 123319] | – | – | –
